Measurements from patent US7056903B2, “Carboxylic acid derivatives as IP antagonists” (Syntex (U.S.A.) LLC, priority 2000, dated 2006).

SMILES	melting point
O=C(N[C@H](Cc1ccccc1)C(=O)O)OCc1ccc2[nH]c(-c3ccccc3)nc2c1 [Compound 129, (R)-3-Phenyl-2-(2-phenyl-1H-benzoimidazol-5-ylmethoxycarbonylamino)-propionic acid]	165 to 215 °C
Cn1c(-c2ccccc2)nc2cc(COC(=O)N[C@H](Cc3ccccc3)C(=O)O)ccc21 [Compound 130, (R)-2-(1-Methyl-2-phenyl-1H-benzoimidazol-5-ylmethoxycarbonylamino)-3-phenyl-propionic acid]	176 to 177 °C
O=C(NC(Cc1ccccc1)C(=O)O)OCc1ccc(/C=C/c2ccccc2)cc1 (stereo not shown) [Compound 133, 3-phenyl-2-[4-((E)-styryl)-benzyloxycarbonylamino]-propionic acid]	165 to 168.5 °C
O=C(N[C@H](Cc1ccc(F)cc1)C(=O)O)OCc1ccc2oc(-c3ccc(F)cc3)cc2c1 [Compound 140, (R)-3-(4-fluoro-phenyl)-2-[2-(4-fluoro-phenyl)-benzofuran-5-ylmethoxycarbonylamino]-propionic acid]	201 to 204 °C
O=C(NC(Cc1ccc(F)cc1)C(=O)O)OCc1ccc(-c2ccc(O)cc2)cc1 (stereo not shown) [Compound 142, 3-(4-fluoro-phenyl)-2-(4′-hydroxy-biphenyl-4-ylmethoxycarbonylamino)-propionic acid]	65 to 74 °C
O=C(NC(Cc1ccccc1)C(=O)O)OCCCc1ccc(-c2ccccc2)cc1 (stereo not shown) [Compound 143, 2-(3-biphenyl-4-yl-propoxycarbonylamino)-3-phenyl-propionic acid]	139.1 to 139.9 °C
Cn1cc(C[C@@H](NC(=O)OCc2ccc(-c3ccccc3)cc2)C(=O)O)c2ccccc21 [Compound 145, (R)-2-(biphenyl-4-ylmethoxycarbonylamino)-3-(1-methyl-1H-indol-3-yl)-propionic acid]	156.7 to 157.2 °C
CCn1cc(CC(NC(=O)OCc2ccc(-c3ccccc3)cc2)C(=O)O)c2ccccc21 (stereo not shown) [Compound 147, 2-(biphenyl-4-ylmethoxycarbonylamino)-3-(1-ethyl-1Hindol-3-yl)-propionic acid]	136.8 to 138.5 °C
CC(C)n1cc(CC(NC(=O)OCc2ccc(-c3ccccc3)cc2)C(=O)O)c2ccccc21 (stereo not shown) [Compound 148, 2-(biphenyl-4-ylmethoxycarbonylamino)-3-(1-isopropyl-1H-indol-3-yl)-propionic acid]	143.1 to 144.8 °C
Cn1cc(C[C@@H](NC(=O)OCc2ccc(-c3ccccc3)cc2)C(=O)O)c2ccccc2c1=O [Compound 149, (R)-2-(biphenyl-4-ylmethoxycarbonylamino)-3-(2-methyl-1-oxo-1,2-dihydro-isoquinolin-4-yl)-propionic acid]	215 to 217 °C
O=C(N[C@H](Cc1nc2ccccc2[nH]1)C(=O)O)OCc1ccc(-c2ccccc2)cc1 [Compound 150, (R)-3-(1H-benzoimidazol-2-yl)-2-(biphenyl-4-ylmethoxycarbonylamino)-propionic acid]	243 to 245 °C
O=C(N[C@H](Cc1ccccc1)C(=O)O)OCc1ccc(COc2cccc3ncccc23)cc1 [Compound 152, (R)-3-phenyl-2-[4-(quinolin-5-yloxymethyl)-benzyloxycarbonylamino]-propionic acid]	189.4 to 189.8 °C
O=C(N[C@H](Cc1ccccc1)C(=O)O)OCc1ccc(Cn2ccc3ccccc32)cc1 [Compound 153, (R)-2-(4-indol-1-ylmethyl-benzyloxycarbonylamino)-3-phenyl-propionic acid]	122 to 125 °C
O=C(NC(Cc1ccccc1)C(=O)O)OCc1ccc(COc2ccc(Cl)cc2)cc1 (stereo not shown) [Compound 155, 2-[4-(4-chloro-phenoxymethyl)-benzyloxycarbonylamino]-3-phenyl-propionic acid]	122 to 123.1 °C
O=C(N[C@H](Cc1ccc(F)cc1)C(=O)O)OCc1ccc2oc(-c3ccc(F)cc3)nc2c1 [Compound 157, (R)-3-(4-fluoro-phenyl)-2-[2-(4-fluoro-phenyl)-benzoxazol-5-ylmethoxycarbonylamino]-propionic acid]	197.1 to 198.7 °C
O=C(N[C@H](Cc1ccccc1)C(=O)O)OCc1ccc2oc(-c3ccc(F)cc3)nc2c1 [Compound 158, (R)-2-[2-(4-fluoro-phenyl)-benzoxazol-5-ylmethoxycarbonylamino]-3-phenyl-propionic acid]	208.2 to 208.5 °C
N#Cc1cccc(-c2nc3cc(COC(=O)N[C@H](Cc4ccc(F)cc4)C(=O)O)ccc3o2)c1 [Compound 159, (R)-2-[2-(3-cyano-phenyl)-benzoxazol-5-ylmethoxycarbonylamino]-3-(4-fluoro-phenyl)-propionic acid]	208.5 to 209.2 °C
O=C(N[C@H](Cc1ccc(F)cc1)C(=O)O)OCc1ccc2oc(-c3cc(F)cc(F)c3)nc2c1 [Compound 160, (R)-2-[2-(3,5-difluoro-phenyl)-benzoxazol-5-ylmethoxycarbonylamino]-3-(4-fluoro-phenyl)-propionic acid]	196.2 to 197.7 °C
O=C(N[C@H](Cc1ccccc1)C(=O)O)OCc1ccc2oc(-c3cccc4[nH]ccc34)nc2c1 [Compound 161, (R)-2-[2-(1H-indol-4-yl)-benzoxazol-5-ylmethoxycarbonylamino]-3-phenyl-propionic acid]	187 to 189 °C
O=C(N[C@H](Cc1ccccc1)C(=O)O)OCc1ccc2oc(-c3cc(F)cc(F)c3)nc2c1 [Compound 162, (R)-2-[2-(3,5-difluoro-phenyl)-benzoxazol-5-ylmethoxycarbonylamino]-3-phenyl-propionic acid]	193.8 to 195 °C
O=C(NC(Cc1cnccn1)C(=O)O)OCc1cc2cc(-c3ccccc3)ccc2o1 (stereo not shown) [Compound 165, 2-(5-phenyl-benzofuran-2-ylmethoxycarbonylamino)-3-pyrazin-2-yl-propionic acid]	144.9 to 146 °C
O=C(NC(Cc1ccccc1)C(=O)O)OCc1ccc(CCCc2ccccc2)cc1 (stereo not shown) [Compound 168, 3-Phenyl-2-[4-(3-phenyl-propyl)-benzyloxycarbonylamino]-propionic acid]	134.8 to 135.2 °C
Cn1cc(C[C@@H](NC(=O)OCc2ccc(COc3ccccc3)cc2)C(=O)O)c2ccccc21 [Compound 170, (R)-3-(1-methyl-1H-indol-3-yl)-2-(4-phenoxymethyl-benzyloxycarbonylamino)-propionic acid]	79.9 to 82.6 °C

Further lines, results first:

melting point	SMILES
190 to 191 °C	O=C(N[C@H](Cc1ccccc1)C(=O)O)OCc1ccc2nc(-c3ccccc3)ccc2c1 [Compound 131, (R)-3-phenyl-2-(2-phenyl-quinolin-6-ylmethoxycarbonylamino)-propionic acid]
176 to 177 °C	O=C(N[C@H](Cc1ccccc1)C(=O)O)OCc1ccc2[nH]c(-c3ccccc3)cc2c1 [Compound 132, (R)-3-phenyl-2-(2-phenyl-1H-indol-5-ylmethoxycarbonylamino)-propionic acid]
159.4 to 160.1 °C	O=C(N[C@H](Cc1ccccc1)C(=O)O)OCc1cc2cc(Cc3ccccc3)ccc2o1 [Compound 134, (R)-2-(5-benzyl-benzofuran-2-ylmethoxycarbonylamino)-3-phenyl-propionic acid]
136.3 to 138.6 °C	O=C(N[C@H](Cc1ccccc1)C(=O)O)OCc1cc2cc(C(=O)c3ccccc3)ccc2o1 [Compound 136, (R)-3-phenyl-2-[5-(1-phenyl-methanoyl)-benzofuran-2-ylmethoxycarbonylamino]-propionic acid]
90 to 95 °C	O=C(N[C@H](Cc1ccccc1)C(=O)O)OCc1cc2cc(-c3ccc4[nH]ccc4c3)ccc2o1 [Compound 138, (R)-2-[5-(1H-indol-5-yl)-benzofuran-2-ylmethoxycarbonylamino]-3-phenyl-propionic acid]
108.8 to 110.5 °C	O=C(N[C@H](Cc1ccccc1)C(=O)O)OCc1ccc2oc(Cc3ccccc3)cc2c1 [Compound 139, (R)-2-(2-benzyl-benzofuran-5-ylmethoxycarbonylamino)-3-phenyl-propionic acid]
219 to 220 °C	O=C(NC(Cc1ccncc1)C(=O)O)OCc1cc2cc(-c3ccccc3)ccc2o1 (stereo not shown) [Compound 163, 2-(5-phenyl-benzofuran-2-ylmethoxycarbonylamino)-3-pyridin-4-yl-propionic acid]
164 to 169 °C	O=C(NC(Cc1cccnc1)C(=O)O)OCc1cc2cc(-c3ccccc3)ccc2o1 (stereo not shown) [Compound 164, 2-(5-Phenyl-benzofuran-2-ylmethoxycarbonylamino)-3-pyridin-3-yl-propionic acid]
174.7 to 175 °C	O=C(NC(Cc1cccnn1)C(=O)O)OCc1cc2cc(-c3ccccc3)ccc2o1 (stereo not shown) [Compound 167, 2-(5-phenyl-benzofuran-2-ylmethoxycarbonylamino)-3-pyridazin-3-yl-propionic acid]
105 to 108 °C	O=C(NC(Cc1cccc(NS(=O)(=O)c2ccccc2)c1)C(=O)O)OCc1cc2cc(-c3ccccc3)ccc2o1 (stereo not shown) [Compound 171, 3-(3-Benzenesulfonylamino-phenyl)-2-(5-phenyl-benzofuran-2-ylmethoxycarbonylamino)-propionic acid]
177.6 to 178.6 °C	O=C(NC(Cc1ccccc1)C(=O)O)OCc1coc2ccc(-c3ccccc3)cc12 (stereo not shown) [Compound 172, 2-(5-Phenyl-benzofuran-3-ylmethoxycarbonylamino)-3-phenyl-propionic acid]
181.4 to 184.5 °C	O=C(NC(Cc1cncnc1)C(=O)O)OCc1cc2cc(-c3ccccc3)ccc2o1 (stereo not shown) [Compound 173, 2-(5-phenyl-benzofuran-2-ylmethoxycarbonylamino)-3-pyrimidin-5-yl-propionic acid]
119 to 121 °C	O=C(NC(Cc1ccccc1)C(=O)O)OCc1cc2cc(-c3ccncc3)ccc2o1 (stereo not shown) [Compound 174, 3-phenyl-2-(5-pyridin-4-yl-benzofuran-2-ylmethoxycarbonylamino)-propionic acid]
192 to 192.5 °C	O=C(NC(Cc1ccccc1)C(=O)O)OCc1cc2cc(-c3cncnc3)ccc2o1 (stereo not shown) [Compound 175, 3-phenyl-2-(5-pyrimidin-5-yl-benzofuran-2-ylmethoxycarbonylamino)-propionic acid]
